Assay [1] concerns the target human recombinant dopamine D3 receptor (Homo sapiens (Human), UniProt P35462). Kind of assay: Test of binding inhibition for the human dopamine D3 receptor (SPA, [3H]-Metylspiperone). Particulars: Jump-In HEK cell membranes, 2 nM [3H]-Metylspiperone, 120 min at 25° C.; read-out: hD3_Ki. As for the experimental part:
Cell membranes: Jump-In HEK cell membranes expressing human recombinant dopamine D3 receptor (4 μg/well)
(§1) Non-specific ligand: (final concentration) 10 μM Butaclamol [(+)-Butaclamol Hydrochloride, D033, Sigma]
(§2) SPA beads: SPA beads [WGA PVT SPA Scintillation Beads, RPNQ0001 (500 mg), RPNQ0060 (2 g), PerkinElmer] (0.2 mg/well)
(§3) Incubation time and temperature: 120 min at 25° C.
(§4) Butaclamol or the compounds of the present invention were weighed and DMSO was added to make a 10 mM solution. This solution was diluted to each concentration.
[^3H]-Metylspiperone was weighed and the buffer solution was added to make a 6 nM solution.
SPA beads were weighed and stirred in water to make a 50 mg/mL solution. Using this solution, a mixed solution with the cell membranes was prepared.
Jump-In HEK Cell membranes (final reaction amount: 4 μg/well), SPA beads (final reaction amount: 0.2 mg/well) and Tris-HCl buffer were mixed and the mixed solution was left still for more than 60 min at 4° C. Then, 50 μL of the mixture was added to each well of the plate. In addition, 25 μL of 6 nM [^3H]-Metylspiperone (final concentration: 2 nM) was added to each well. […] Non-specific binding was calculated based on the radioactivity of [^3II]-Metylspiperone in the presence of 10 μM non-labeled Butaclamol. The total binding was calculated based on the radioactivity of [^3H]-Metylspiperone in the absence of the compounds of the present invention (Vehicle). The Ki values were calculated from dose-response curves.
Binding activities of the compounds of the present invention were calculated from the following Binding Inhibition Rate (%): Inhibition Rate (%)=[1−(c−a)(b−a)]*100(%) • a: Average cpm of non-specific binding • b: Average cpm of total binding • c: Cpm in the presence of each test compound

Assay [2] deals with human recombinant dopamine D2 receptor (Homo sapiens (Human), UniProt P14416). Kind of assay: Test of binding inhibition for the human dopamine D2 receptor (SPA, [3H]-Metylspiperone). The note with it: Jump-In HEK cell membranes, 1.2 nM [3H]-Metylspiperone, 120 min at 25° C.; read-out: hD2_Ki. The procedure:
Test Example 1: Test of Binding Inhibition for the Human Dopamine D2 Receptor
Cell membranes: Jump-In HEK cell membranes expressing human recombinant dopamine D2 receptor (2 μg/well)
Buffer solution: 50 mM Tris-HCl (35409-45, Nacalai Tesque) (pH 7.4) containing 120 mM NaCl (31320-05, Nacalai Tesque), 1 mM MgCl2.6H2O (20909-55, Nacalai Tesque). 5 mM KCl (28514-75, Nacalai Tesque) and 2 mM CaCl2 (067-31, Nacalai Chemical, Ltd)
Radioligand: (final concentration) 1.2 nM [^3H]-Metylspiperone ([^3H—N-methyl-]-Metylspiperone, NET-856, 83.8 Ci/mmol, PerkinElmer)
as §1, §2, §3, §4
[^3H]-Metylspiperone was weighed and the buffer solution was added to make a 3.6 nM solution.
SPA beads were weighed and stirred in water to moke a 50 mg/mL solution. Using this solution, a mixed solution with the cell membranes was prepared.
225 nL of the solutions of the non-specific ligand or the compounds of the present invention at each concentration (in case of vehicle, final concentration 0.3% DMSO) were added in each well of a 384-well white/clear bottom microplate (3706, Corning). Jump-In HEK Cell membranes (final reaction amount: 2 μg protein/well), SPA beads (final reaction amount: 0.2 mg/well) and the buffer were mixed and the mixed solution was left still for more than or equal to 1 h at 4° C. Then, 50 μL of the mixture was added to each well of the plate. In addition, 25 μL of 3.6 nM [^3H]-Metylspiperone (final concentration: 1.2 nM) was added to each well. The plate was sealed by putting TopSeal-A 96/384 well (6050185, PerkinElmer) on the top of the plate, mixed using stirring deaerator (Welltornado, FK-62, Sakaki) and incubated for 120 min at 25° C. After incubation, the radioactivity of [^3H]-Metylspiperone which was binded to D2 receptor was determined by liquid scintillation counter (1450 Microbeta, PerkinElmer) in each well. Non-specific binding was calculated based on the radioactivity of [^3H]-Metylspiperone in the presence of 10 μM non-labeled Butaclamol. The total binding was calculated using the radioactivity of [^3H]-Metylspiperone in the absence of the compounds of the present invention (Vehicle). The Ki values were calculated from dose-response curves.
Binding activities of the compounds of the present invention were calculated from the following Binding Inhibition Rate (%): Inhibition Rate (%)=[1−(c−a)(b−a)]×100(%) • a: Average cpm of non-specific binding • b: Average cpm of total binding • c: Cpm in the presence of each test compound

Another assay has as its system impulsivity in rat. As to the kind of experiment: Effect of suppressing impulsivity in rat (T-maze delayed large reward, i.p.). The note with it: 3 mg/kg, total 50 trials of 5 days, versus vehicle control group. In kind it is in vivo. An excerpt:
Test Example 3-1: Effect of Suppressing Impulsivity in Rat
Male Crl: WI rats were obtained at post-natal day 14 and weaning was occurred at post-natal day 21. Starting from then, the rats were housed 2-3 per cage and food-restricted (Day 1). The feeding amount was 5 g/day at post-natal day 21-28 (Day 1-8), 8.5 g/day at post-natal day 29-32 (Day 9-12), and 10 g/day at post-natal day 33-36 (Day 13-16), preventing their body weight from being 60% or less of the weight of the free feeding rats.
4 days after the beginning of the food restriction (Day 5), pellets were put on goal boxes located in the left-side and the right-side of T-maze. Then, the rats were allowed to freely explore the T-maze-box for 5 min to get habituated to the T-maze box and learn that the pellets were put on the goal boxes located in the left-side and the right-side. For 4 consecutive days from the next day (Day 6-9), one pellet (20 mg×1) was put in one side of the goal box as a small reward, and 5 pellets (20 mg×5) were put in the other side of the goal box as a large reward, and the rats were trained to learn their positions. Each rat underwent 10-trial per day trainings. […] The evaluations of the drug efficacy were started on Day 12. […]

The results in this text go back to patent US11345716B2, “Nitrogen-containing condensed ring compounds having dopamine D3 antagonistic effect” (Shionogi & Co., Ltd., priority 2016, dated 2022).

Chain of human recombinant dopamine D3 receptor (P35462 whole entry): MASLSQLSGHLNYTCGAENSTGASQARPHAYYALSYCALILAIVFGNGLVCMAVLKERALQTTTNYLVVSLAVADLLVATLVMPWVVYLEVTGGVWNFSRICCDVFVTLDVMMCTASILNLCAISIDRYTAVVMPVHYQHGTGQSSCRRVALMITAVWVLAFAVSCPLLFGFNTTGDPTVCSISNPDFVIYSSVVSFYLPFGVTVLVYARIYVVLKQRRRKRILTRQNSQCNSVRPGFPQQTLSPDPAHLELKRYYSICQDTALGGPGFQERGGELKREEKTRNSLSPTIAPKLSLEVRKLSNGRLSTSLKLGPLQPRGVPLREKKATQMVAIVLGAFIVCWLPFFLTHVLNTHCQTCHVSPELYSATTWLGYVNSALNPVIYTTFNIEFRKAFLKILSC
Chain of human recombinant dopamine D2 receptor (P14416 whole entry): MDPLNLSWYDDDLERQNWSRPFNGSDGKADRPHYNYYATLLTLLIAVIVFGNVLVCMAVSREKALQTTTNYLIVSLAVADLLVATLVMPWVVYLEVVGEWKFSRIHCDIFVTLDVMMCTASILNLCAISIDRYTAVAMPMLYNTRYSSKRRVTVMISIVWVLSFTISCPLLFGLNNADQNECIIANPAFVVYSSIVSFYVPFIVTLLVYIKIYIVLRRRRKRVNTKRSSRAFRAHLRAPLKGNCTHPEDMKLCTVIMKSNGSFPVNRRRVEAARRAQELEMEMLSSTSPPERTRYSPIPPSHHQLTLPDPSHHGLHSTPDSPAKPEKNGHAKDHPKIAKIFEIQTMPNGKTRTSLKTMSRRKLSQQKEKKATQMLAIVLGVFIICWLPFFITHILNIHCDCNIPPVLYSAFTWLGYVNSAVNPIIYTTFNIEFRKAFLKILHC

Consider `Cc1cc(CC(=O)N[C@H]2CC[C@H](CCN3CCc4sc(N5CC(F)(F)C5)nc4C3)CC2)on1` [Compound I-098], for which the Ki in assay [1] was 0.12 nM; in assay [2], 1600 nM.

`O=C(N[C@H]1CC[C@H](CCN2CCc3sc(OCC(F)F)nc3C2)CC1)c1cccc2ncccc12` [Compound I-085]: the “number of choices for the large reward” value in the assay with impulsivity in rat is given as “significantly increased”.

As for `COc1cc(CCC(=O)N[C@H]2CC[C@H](CCN3CCc4ccc(OCC(F)F)nc4CC3)CC2)on1` [II-041], the Ki is 0.058 nM in assay [1] and 290 nM in assay [2].

Regarding `Cc1cn2c(C(=O)N[C@H]3CC[C@H](CCN4CCc5ccc(OCC(F)F)nc5CC4)CC3)cccc2n1` [II-057], the Ki in assay [1] is 0.014 nM; in assay [2], above 1700 nM.

As for `Cc1ncc(CC(=O)N[C@H]2CC[C@H](CCN3CCc4cc(C)c(OCC(F)F)nc4CC3)CC2)s1` [III-008], the values for the Ki in assay [1] and in assay [2] were 0.25 nM and 480 nM, respectively.

On to `Cc1ncc(CC(=O)N[C@H]2CC[C@H](CCN3CCc4cnc(OCC(F)F)nc4CC3)CC2)s1` [II-062], for which the results for the Ki in assay [1] and in assay [2] were 1.1 nM and above 1700 nM, respectively.
